Experimental data reported in PMC4806491, “The milk-derived fusion peptide, ACFP, suppresses the growth of primary human ovarian cancer cells by regulating apoptotic gene expression and signaling pathways” (BMC Cancer, 2016).
Where two headings read alike, the source gives them in different places. Positions of bridges follow the written chain, without caps; N, C: chain ends. Residues, ends and D or L forms follow the SMILES beside them.

System: primary ovarian cancer cells
Conditions: 48 h; for LOC441241 Ratio (ACFP/control): NM_441241
Method: We utilized cDNA microarrays to observe the effect of ACFP on gene expression in primary ovarian cancer cells. Cells were treated with 0 (the vehicle group, as control), 5 × 10^6 g/L and 5 × 10^3 g/L ACFP, respectively, and cultured for 48 h at 37 °C in 5 % CO2. Cells were later digested and collected for total RNA extraction using Trizol. The RNA concentrations and purities were detected with a spectrophotometer. The experiments were performed in duplicate on a single total RNA preparation from the cells. Signal values were presented as the mean value of two replicate experiments. RNA samples were used to generate human whole genome expression profiling microarray (Yeli Bioscience Co., Ltd.; Shanghai, China). RNA was subsequently converted into digoxigenin-labeled complementary RNA and hybridized to a human genome microarray system (Human OneArray Microarray, from Phalanx Biotech Group, Taiwan). The chips were scanned by a GeeDom® LuxScan 10 K microarray scanner. LuxScan3.0 software was used to extract probe fluorescence signals and analyze images. Finally, the original data were processed by normalizing.

With `CC[C@H](C)[C@@H]1NC(=O)[C@H](CO)NC(=O)[C@@H]2CCCN2C(=O)[C@H](C)NC(=O)CNC(=O)[C@H](CC(C)C)NC(=O)[C@H](CCCCN)NC(=O)[C@H](CCCCN)NC(=O)[C@H](CCSC)NC(=O)[C@H](CCCNC(=N)N)NC(=O)[C@H](Cc2c[nH]c3ccccc23)NC(=O)[C@H](CCC(N)=O)NC(=O)[C@H](Cc2c[nH]c3ccccc23)NC(=O)[C@H](CCCNC(=N)N)NC(=O)[C@H](CCCNC(=N)N)NC(=O)[C@@H](NC(=O)[C@H](CCCCN)NC(=O)[C@@H](N)Cc2ccccc2)CSSC[C@@H](C(=O)N[C@H](C(=O)N[C@@H](CCCNC(=N)N)C(=O)N[C@@H](CCCNC(=N)N)C(=O)N[C@@H](C)C(=O)N[C@@H](Cc2ccccc2)C(=O)NCC(=O)NCC(=O)NCC(=O)NCC(=O)N[C@@H](CO)C(=O)N2CCC[C@H]2C(=O)NCC(=O)N2CCC[C@H]2C(=O)N[C@H](C(=O)N2CCC[C@H]2C(=O)N[C@@H](CC(N)=O)C(=O)O)[C@@H](C)CC)C(C)C)NC(=O)[C@H]([C@@H](C)O)NC1=O` [ACFP] (H-FKCRRWQWRMKKLGAPSITCVRRAFGGGGSPGPIPN-OH; disulfide 3-20; N-terminus and C-terminus assumed) the “C1QTNF6 Ratio (ACFP/control)” value (High dose 5×10^-3 g/L, NM_114904, second entry) was 6.26, the “LOC441241 Ratio (ACFP/control)” value (High dose 5×10^-3 g/L) was 5.22 and the “GTF2IP1 Ratio (ACFP/control)” value (Low dose 5×10^-6 g/L, NM-002970) was 0.47. For the same compound, the “IGFBP5 Ratio (ACFP/control)” value (Low dose 5×10^-6 g/L, NM-003488) was 0.45, the “MYLK Ratio (ACFP/control)” value (Low dose 5×10^-6 g/L, NM-004638) was 0.33 and the “NKX3-1 Ratio (ACFP/control)” value (Low dose 5×10^-6 g/L, NM-004824) was 2.8. The “PLA2G5 Ratio (ACFP/control)” value (Low dose 5×10^-6 g/L, NM-005322) was 0.36, the “POLH Ratio (ACFP/control)” value (Low dose 5×10^-6 g/L, NM-005429) was 0.33 and the “PSMA1 Ratio (ACFP/control)” value (Low dose 5×10^-6 g/L, NM-005682) was 0.39. The “STAT5B Ratio (ACFP/control)” value (Low dose 5×10^-6 g/L, NM-006777) was 3.24, the “STAT6 Ratio (ACFP/control)” value (Low dose 5×10^-6 g/L, NM-006778) was 2.06 and the “UPP1 Ratio (ACFP/control)” value (Low dose 5×10^-6 g/L, NM-007378) was 0.48. The “TNFSF18 Ratio (ACFP/control)” value (Low dose 5×10^-6 g/L, NM-008995) was 0.49, the “MAP4K4 Ratio (ACFP/control)” value (Low dose 5×10^-6 g/L, NM-009448) was 0.36 and the “BTF/BCLAF1 Ratio (ACFP/control)” value (Low dose 5×10^-6 g/L, NM-009774) was 3.25. The “TMEFF1 Ratio (ACFP/control)” value (Low dose 5×10^-6 g/L, NM-016522) was 3.33, the “RAB18 Ratio (ACFP/control)” value (Low dose 5×10^-6 g/L, NM-022931) was 0.30 and the “TCF/LEF1 Ratio (ACFP/control)” value (Low dose 5×10^-6 g/L, NM-051176) was 0.36. The “PINX1 Ratio (ACFP/control)” value (Low dose 5×10^-6 g/L, NM-054984) was 0.45, the “RINT-1 Ratio (ACFP/control)” value (Low dose 5×10^-6 g/L, NM-060561) was 0.32 and the “C17orf37 Ratio (ACFP/control)” value (Low dose 5×10^-6 g/L, NM-084299) was 0.39. For the same compound, the “ZNF512 Ratio (ACFP/control)” value (Low dose 5×10^-6 g/L, NM-084450) was 0.31, the “AKT1 Ratio (ACFP/control)” value (Low dose 5×10^-6 g/L, NM_000207) was 0.29 and the “ARHE Ratio (ACFP/control)” value (Low dose 5×10^-6 g/L, NM_000390) was 2.99. The “BAG1 Ratio (ACFP/control)” value (Low dose 5×10^-6 g/L, NM_000573) was 0.48, the “BAX Ratio (ACFP/control)” value (Low dose 5×10^-6 g/L, NM_000581) was 3.73 and the “BCL-xl Ratio (ACFP/control)” value (Low dose 5×10^-6 g/L, NM_000598) was 0.28. For the same compound, the “C1QG Ratio (ACFP/control)” value (Low dose 5×10^-6 g/L, NM_000714) was 2.02, the “CASP3 Ratio (ACFP/control)” value (Low dose 5×10^-6 g/L, NM_000836) was 3.72 and the “CCNB1 Ratio (ACFP/control)” value (Low dose 5×10^-6 g/L, NM_000891, cyclinB1) was 0.30. The “TNFRSF8 Ratio (ACFP/control)” value (Low dose 5×10^-6 g/L, NM_000943, first entry) was 2.05, the “TNFRSF8 Ratio (ACFP/control)” value (Low dose 5×10^-6 g/L, NM_000943, second entry) was 2.02 and the “CDC25C Ratio (ACFP/control)” value (Low dose 5×10^-6 g/L, NM_000995) was 0.29. The “CDKN1A Ratio (ACFP/control)” value (Low dose 5×10^-6 g/L, NM_001026) was 3.24, the “CDKN1A/p21 Ratio (ACFP/control)” value (Low dose 5×10^-6 g/L, NM_001026, second entry) was 3.24 and the “CKS2 Ratio (ACFP/control)” value (Low dose 5×10^-6 g/L, NM_001164) was 3.67. For the same compound, the “DVL1 Ratio (ACFP/control)” value (Low dose 5×10^-6 g/L, NM_001855) was 3.58, the “GRK4 Ratio (ACFP/control)” value (Low dose 5×10^-6 g/L, NM_002868) was 0.42 and the “GRK5 Ratio (ACFP/control)” value (Low dose 5×10^-6 g/L, NM_002869) was 0.47. For the same compound, the “GRK6 Ratio (ACFP/control)” value (Low dose 5×10^-6 g/L, NM_002870) was 0.49, the “GSTM4 Ratio (ACFP/control)” value (Low dose 5×10^-6 g/L, NM_002948) was 2.25 and the “GSTM5 Ratio (ACFP/control)” value (Low dose 5×10^-6 g/L, NM_002949) was 3.55. The “IRF7 Ratio (ACFP/control)” value (Low dose 5×10^-6 g/L, NM_003665) was 3.13, the “ITGA5 Ratio (ACFP/control)” value (Low dose 5×10^-6 g/L, NM_003678) was 0.36 and the “PKIA Ratio (ACFP/control)” value (Low dose 5×10^-6 g/L, NM_005569) was 2.52. The “MAPK3/ERK1 Ratio (ACFP/control)” value (Low dose 5×10^-6 g/L, NM_005595) was 0.36, the “MAPK8/JNK1 Ratio (ACFP/control)” value (Low dose 5×10^-6 g/L, NM_005599) was 2.04 and the “MAPK13/p38 delta Ratio (ACFP/control)” value (Low dose 5×10^-6 g/L, NM_005603) was 2.91. The “PSMB8 Ratio (ACFP/control)” value (Low dose 5×10^-6 g/L, NM_005696) was 2.97, the “TNFRSF1A Ratio (ACFP/control)” value (Low dose 5×10^-6 g/L, NM_007132, first entry) was 3.50 and the “TNFRSF1A Ratio (ACFP/control)” value (Low dose 5×10^-6 g/L, NM_007132, second entry) was 3.50. For the same compound, the “ZNF12 Ratio (ACFP/control)” value (Low dose 5×10^-6 g/L, NM_007559) was 2.07, the “BAT5 Ratio (ACFP/control)” value (Low dose 5×10^-6 g/L, NM_007920) was 3.66 and the “PABPN1 Ratio (ACFP/control)” value (Low dose 5×10^-6 g/L, NM_008106) was 3.71. For the same compound, the “TNFRSF10B Ratio (ACFP/control)” value (Low dose 5×10^-6 g/L, NM_008795) was 2.43, the “STK17B Ratio (ACFP/control)” value (Low dose 5×10^-6 g/L, NM_009262) was 2.01 and the “TRAF4 Ratio (ACFP/control)” value (Low dose 5×10^-6 g/L, NM_009618) was 3.34. The “USP34 Ratio (ACFP/control)” value (Low dose 5×10^-6 g/L, NM_009736) was 3.49, the “GOLGA5 Ratio (ACFP/control)” value (Low dose 5×10^-6 g/L, NM_009950) was 2.46 and the “SUI1 Ratio (ACFP/control)” value (Low dose 5×10^-6 g/L, NM_010209) was 2.89. For the same compound, the “SPINT2 Ratio (ACFP/control)” value (Low dose 5×10^-6 g/L, NM_010653) was 3.58, the “PIK3R5 Ratio (ACFP/control)” value (Low dose 5×10^-6 g/L, NM_023533) was 0.39 and the “CARD10 Ratio (ACFP/control)” value (Low dose 5×10^-6 g/L, NM_029775) was 2.43. For the same compound, the “FLJ39616 Ratio (ACFP/control)” value (Low dose 5×10^-6 g/L, NM_051275) was 3.34, the “GNG12 Ratio (ACFP/control)” value (Low dose 5×10^-6 g/L, NM_055970) was 3.49 and the “BCORL1 Ratio (ACFP/control)” value (Low dose 5×10^-6 g/L, NM_063035) was 0.35. For the same compound, the “CARD14 Ratio (ACFP/control)” value (Low dose 5×10^-6 g/L, NM_079092) was 2.13, the “BCL2L14 Ratio (ACFP/control)” value (Low dose 5×10^-6 g/L, NM_079370) was 2.44 and the “FLJ13848 Ratio (ACFP/control)” value (Low dose 5×10^-6 g/L, NM_079829) was 3.28. For the same compound, the “SNARK Ratio (ACFP/control)” value (Low dose 5×10^-6 g/L, NM_081788) was 3.08, the “C1QTNF6 Ratio (ACFP/control)” value (Low dose 5×10^-6 g/L, NM_114904, first entry) was 3.57 and the “C1QTNF6 Ratio (ACFP/control)” value (Low dose 5×10^-6 g/L, NM_114904, second entry) was 3.43. The “LOC441241 Ratio (ACFP/control)” value (Low dose 5×10^-6 g/L) was 3.48.
